For data set [1], the target named is colchicine-binding site on tubulin (Sus scrofa, UniProt P02550+P02554). The experiment in a line: Competitive mass spectrometry binding assay. More on the design: species or system porcine. The conditions noted are these: tubulin 1 mg/mL, competitor 0.2–200 μM.
Another data set deals with Du-145. The following applies: read-out: Cytotoxicity IC50, ref Ahn et al., MCT 9:2959, 2010 ([33]); cited from earlier work.
Data set [2] deals with PPC-1. The conditions noted are these: read-out: Cytotoxicity IC50, ref Ahn et al., MCT 9:2959, 2010 ([33]); cited from earlier work.
The test system of data set [3] is PC-3/TxR. Briefly: Apoptosis. The following applies: 0.8–600 nmol/L, 24 h. It is filed as cell-based, human.
The next data set deals with PC-3. Briefly: Apoptosis. It is filed as cell-based, human. The following applies: PC-3, 0.8–600 nmol/L, 24 h.
The test system of another data set is PC-3/TxR tumors. Briefly: Paclitaxel-resistant PC-3/TxR tumor xenograft study. It is filed as in vivo, nude mice. The following applies: for Body weight End / TGI / Body weight Start: PC-3/TxR xenograft.
Data set [4] deals with PC-3/TxR. Briefly: SRB cytotoxicity assay in paclitaxel-resistant PC-3/TxR. It is filed as cell-based, human. On the technique in general: In SRB staining, fixed cells bind dye roughly in proportion to their protein.
A further data set has as its system PC-3 tumors. Briefly: PC-3 tumor xenograft study. It is filed as in vivo, nude mice. The following applies: PC-3 xenograft, day 1 and 9, end point day 19.
A further data set has as its system LNCaP. The conditions noted are these: read-out: Cytotoxicity IC50, ref Ahn et al., MCT 9:2959, 2010 ([33]); cited from earlier work.
The conditions of data set [5]: cited from earlier work.
Data set [6] is described as follows: in vivo. The conditions noted are these: male (mice), female (rats, dogs), ICR (mouse), Sprague-Dawley (rat), beagle (dog), po.
The nature of a further data set: in vitro. The conditions noted are these: human, Caco-2.
Data set [7] can be described thus: Paclitaxel-resistant PC-3/TxR tumor xenograft study. Type of data set: in vivo, nude mice. The conditions noted are these: male, athymic nude, mouse, tumor, po, 30 mg/kg.
Data set [8] can be described thus: in vivo. The following applies: female, beagle, dog, plasma, po, 5 mg/kg.
The next data set relates to U87MG. The experiment in a line: SRB cytotoxicity assay in U87MG glioma. It is filed as cell-based, human. The conditions noted are these: read-out: Cytotoxicity IC50, 96 h treatment, mean ± SD, N=3.
Data set [9] can be described thus: Pharmacokinetic study in rats. The conditions noted are these: female, Sprague-Dawley, rat, plasma, po, 10 mg/kg.
Data set [10] relates to PPC-1. Briefly: SRB cytotoxicity assay in PPC-1. The conditions noted are these: Homo sapiens, PPC-1, 96 h, read-out: Cytotoxicity IC50. It is filed as cell-based.
Setting [11] is: IV 10 mg/kg, day 1 and 9, end point day 19.
The mark [12] stands for this setting: IV 20 mg/kg, day 1 and 9, end point day 19.
Setting [13] is: PO 10 mg/kg, b.i.d×5/w, end point day 26.

The structures appear in SMILES notation. Like-named read-outs stand apart in the source and are kept apart here.

As for `CC[C@]1(O)C[C@@H]2CN(CCc3c([nH]c4ccccc34)[C@@](C(=O)OC)(c3cc4c(cc3OC)N(C)[C@H]3[C@@](O)(C(=O)OC)[C@H](OC(C)=O)[C@]5(CC)C=CCN6CC[C@]43[C@@H]65)C2)C1` [Vinblastine], the “competition with colchicine for tubulin binding” value in data set [1] is on record as “did not inhibit colchicine binding to tubulin”.

Consider `CC(=O)O[C@@]12CO[C@@H]1C[C@H](O)[C@@]1(C)C(=O)[C@H](O)C3=C(C)[C@@H](OC(=O)[C@H](O)[C@@H](NC(=O)OC(C)(C)C)c4ccccc4)C[C@@](O)([C@@H](OC(=O)c4ccccc4)[C@H]21)C3(C)C` [Docetaxel], for which the IC50 in the data set on Du-145 is 5.2 ± 1 nM; in the data set with PPC-1 [2] it was 2.7 ± 1 nM; with PC-3/TxR [4] (Homo sapiens, PC3-TxR, 96 h, read-out: Cytotoxicity IC50) it was 18 ± 0.7 nM; with LNCaP, 4.7 ± 1.3 nM. Also, the “induction of cell apoptosis (DNA histone complex formation)” value in the data set on PC-3/TxR [3] is “substantially weaker”; in the data set with PC-3, “potently induced cell apoptosis”. The “Body weight End” value was found to be 25 ± 2 g in the data set on PC-3/TxR tumors (setting [11]), 25 ± 4 g with PC-3/TxR tumors (setting [12]), 24 ± 2 g with PC-3 tumors (IV 10 mg/kg) and 24 ± 3 g with PC-3 tumors (IV 20 mg/kg). Further, the results for the TGI in the data set on PC-3/TxR tumors (setting [11]) and in the data set on PC-3/TxR tumors (setting [12]) were 14% and 56%, respectively. For the same molecule, the “Resistance factor (IC50 in PC-3/TxR compared with PC-3)” value in the data set with PC-3/TxR [4] was 15.

For the molecule `COc1cc(C(=O)c2csc(-c3ccccc3)n2)cc(OC)c1OC` [SMART-H, 4-(3,4,5-trimethoxybenzoyl)-2-phenyl-thiazole], the neurotoxicity entry in [5] is “did not find any signs of obvious neurotoxicity”.

For the molecule `COc1cc(C(=O)c2csc(Nc3ccc4[nH]ccc4c3)n2)cc(OC)c1OC` [IAT, (2-(1H-indol-5-ylamino)-thiazol-4-yl)(3,4,5-trimethoxyphenyl)methanone], the “induction of cell apoptosis (DNA histone complex formation)” value with PC-3/TxR [3] and in the data set on PC-3 was “equally potent in their ability to induce cell apoptosis” each time. In addition, the bioavailability was 24 to 36% in “in vivo [6]”, 36% in “in vivo [8]” and 24% in data set [9]. For the same molecule, in “in vitro”, the Papp A→B amounted to 99 ×10⁻⁶ cm/s. In [7], this molecule yielded a Kp at 1 h of 0.43 ± 0.33. In addition, the “Body weight Start” value with PC-3/TxR tumors (PO 10 mg/kg, b.i.d×5/w) was 29 ± 2 g; with PC-3/TxR tumors (PO 30 mg/kg, b.i.d×5/w) it was 29 ± 3 g. Moreover, the “Body weight End” value in the data set on PC-3/TxR tumors (setting [13]) is 26 ± 3 g; in the data set on PC-3/TxR tumors (PO 30 mg/kg, b.i.d×5/w, end point day 26), 30 ± 2 g. The molecule also showed a tumour growth inhibition (TGI) in the data set on PC-3/TxR tumors (setting [13]) of 59%. Moreover, the Tumor growth inhibition result in the data set on PC-3/TxR tumors (paclitaxel-resistant prostate cancer xenograft, treated orally at doses of 3–30 mg/kg) is given as “greater than 100%”. Besides, the “competition with colchicine for tubulin binding” value in [1] was “competed effectively with colchicine for tubulin binding”. Besides, in the data set on U87MG, the IC50 worked out at 22 ± 30 nM.

Regarding `CC(=O)O[C@H]1C(=O)[C@@]2(C)[C@H]([C@H](OC(=O)c3ccccc3)[C@]3(O)C[C@H](OC(=O)[C@H](O)[C@@H](NC(=O)c4ccccc4)c4ccccc4)C(C)=C1C3(C)C)[C@]1(OC(C)=O)CO[C@@H]1C[C@@H]2O` [Paclitaxel], in the data set on PPC-1 [10], the half-inhibitory concentration (IC50) was 23 ± 0.8 nM.

Usually IC50 stands for the concentration at which inhibition is half-maximal. As a reminder, the TGI is how far tumour growth fell short of that in controls. A high value points to much slowing of growth. One may read the bioavailability as the share of a dose that reaches the circulation, judged against a reference dose that is usually intravenous. A lower bioavailability goes with little systemic uptake. The term Papp A→B denotes how fast a substance crosses the layer from the apical side. A lower Papp A→B goes with poor permeation.

Source of the values: paper PMC3646298 (Pharmaceutical research, 2012).
